From ChEMBL document CHEMBL1201862, “PubChem BioAssay data set” (2004)
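Growth conditions: 96-well plates. Treatment: test compound, 48 hours, 5 concentrations. Analysis: linear interpolation between bracketing concentrations; unreached endpoints set to highest concentration. At the GI50, growth is halved.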 Active and inactive are the calls of the source. Cut-off read from the data, not from the text of the source: active = GI50 up to about 1.1 µM and inactive = higher.

Columns and labels:
Assay in all cases: NCI-60 cell line screen, 48 h
A498 = test system: A498
A549 = test system: A549
BT-549 = test system: BT-549
EKVX = test system: EKVX
HOP-92 = test system: HOP-92
LOX IMVI = test system: LOX IMVI
MDA-MB-435 = test system: MDA-MB-435
MOLT-4 = test system: MOLT-4
Malme-3M = test system: Malme-3M
NCI-H23 = test system: NCI-H23
NCI-H522 = test system: NCI-H522
OVCAR-3 = test system: OVCAR-3
OVCAR-5 = test system: OVCAR-5
PC-3 = test system: PC-3
RXF 393 = test system: RXF 393
SK-MEL-28 = test system: SK-MEL-28
SK-OV-3 = test system: SK-OV-3
SW-620 = test system: SW-620
TK-10 = test system: TK-10
UACC-257 = test system: UACC-257

Structure (SMILES)	GI50 (A498)	GI50 (A549)	GI50 (BT-549)	GI50 (EKVX)	GI50 (HOP-92)	GI50 (LOX IMVI)	GI50 (MDA-MB-435)	GI50 (MOLT-4)	GI50 (Malme-3M)	GI50 (NCI-H23)	GI50 (NCI-H522)	GI50 (OVCAR-3)	GI50 (OVCAR-5)	GI50 (PC-3)	GI50 (RXF 393)	GI50 (SK-MEL-28)	GI50 (SK-OV-3)	GI50 (SW-620)	GI50 (TK-10)	GI50 (UACC-257)
O=C1OC(c2ccccc2)=N/C1=C\c1ccc(N(CCCl)CCCl)cc1	> 100 µM (inactive)	> 100 µM (inactive)	> 100 µM (inactive)	> 100 µM (inactive)	> 52.5 µM (inactive)	> 91.4 µM (inactive)	> 100 µM (inactive)	44.9 µM (inactive)	> 100 µM (inactive)	> 57.8 µM (inactive)	21.3 µM (inactive)	> 76.2 µM (inactive)	> 100 µM (inactive)	> 86.5 µM (inactive)	42 µM (inactive)	> 100 µM (inactive)	> 100 µM (inactive)	> 100 µM (inactive)	> 100 µM (inactive)	> 100 µM (inactive)
c1cc(CCN2CCCCC2)ccn1	> 100 µM (inactive)	> 100 µM (inactive)	> 100 µM (inactive)	> 100 µM (inactive)	> 100 µM (inactive)	> 100 µM (inactive)	> 100 µM (inactive)	35.2 µM (inactive)	> 100 µM (inactive)	> 100 µM (inactive)	> 100 µM (inactive)	> 100 µM (inactive)	> 100 µM (inactive)	> 100 µM (inactive)	> 100 µM (inactive)	> 100 µM (inactive)	> 100 µM (inactive)	> 100 µM (inactive)	> 100 µM (inactive)	> 100 µM (inactive)
CN1CCN(C(=O)c2cn(Cc3cncn3Cc3ccc4c(c3)OCO4)cc2-c2cccc3ccccc23)CC1	0.883 µM (active)	16.9 µM (inactive)	9.75 µM (inactive)	15.3 µM (inactive)	1.03 µM (active)	4.76 µM (inactive)	0.198 µM (active)	1.58 µM (inactive)	3.33 µM (inactive)	12.2 µM (inactive)	5.86 µM (inactive)	25.5 µM (inactive)	24.8 µM (inactive)	15.6 µM (inactive)	30 µM (inactive)	4.83 µM (inactive)	22.7 µM (inactive)	13.9 µM (inactive)	29.1 µM (inactive)	14 µM (inactive)
CCN(CC)CCSc1c(C(C)=O)c(=O)n(-c2ccccc2)c(=S)n1-c1ccccc1	19.1 µM (inactive)	13.8 µM (inactive)	15.5 µM (inactive)	15.1 µM (inactive)	1.9 µM (inactive)	3.32 µM (inactive)	6.17 µM (inactive)	2.77 µM (inactive)	6.1 µM (inactive)	14.7 µM (inactive)	2.21 µM (inactive)	2.81 µM (inactive)	21 µM (inactive)	4.04 µM (inactive)	1.9 µM (inactive)	10.5 µM (inactive)	34 µM (inactive)	2.25 µM (inactive)	5.47 µM (inactive)	9.98 µM (inactive)
CC(C)(C)OC(=O)NCC(C#N)CNC(=O)OC(C)(C)C	> 100 µM (inactive)	> 100 µM (inactive)	> 100 µM (inactive)	> 100 µM (inactive)	> 100 µM (inactive)	> 100 µM (inactive)	> 100 µM (inactive)	> 100 µM (inactive)	> 100 µM (inactive)	> 100 µM (inactive)	> 100 µM (inactive)	> 100 µM (inactive)	> 100 µM (inactive)	> 100 µM (inactive)	> 100 µM (inactive)	> 100 µM (inactive)	> 100 µM (inactive)	> 100 µM (inactive)	> 100 µM (inactive)	> 100 µM (inactive)
Cc1cc(C(C)(C)C)cc(CNC2CCCCC2)c1O	16.6 µM (inactive)	18.4 µM (inactive)	16.3 µM (inactive)	15.7 µM (inactive)	15.5 µM (inactive)	16 µM (inactive)	19.5 µM (inactive)	31.3 µM (inactive)	14.3 µM (inactive)	15.4 µM (inactive)	12.6 µM (inactive)	15.6 µM (inactive)	16.2 µM (inactive)	16.5 µM (inactive)	< 0.01 µM (active)	16.7 µM (inactive)	20 µM (inactive)	19.9 µM (inactive)	16.1 µM (inactive)	14.9 µM (inactive)
Clc1ccc(-c2nnc(-c3cccc4ccccc34)o2)cc1Cl	> 100 µM (inactive)	> 100 µM (inactive)	> 100 µM (inactive)	> 100 µM (inactive)	17.6 µM (inactive)	> 100 µM (inactive)	> 100 µM (inactive)	59.7 µM (inactive)	> 100 µM (inactive)	> 100 µM (inactive)	> 100 µM (inactive)	> 100 µM (inactive)	> 100 µM (inactive)	> 100 µM (inactive)	> 100 µM (inactive)	> 100 µM (inactive)	> 100 µM (inactive)	> 100 µM (inactive)	> 100 µM (inactive)	> 100 µM (inactive)
COc1ccc(OCC(=N/NC(=O)c2ccncc2)/N=C/c2ccncc2)cc1	59.3 µM (inactive)	> 100 µM (inactive)	> 100 µM (inactive)	> 100 µM (inactive)	29.2 µM (inactive)	> 100 µM (inactive)	22.6 µM (inactive)	90.2 µM (inactive)	> 100 µM (inactive)	> 100 µM (inactive)	32.2 µM (inactive)	48.6 µM (inactive)	> 100 µM (inactive)	> 100 µM (inactive)	36.3 µM (inactive)	75.5 µM (inactive)	94.4 µM (inactive)	53.5 µM (inactive)	> 100 µM (inactive)	> 100 µM (inactive)
Cc1c[n+]([O-])c2ccccc2[n+]1[O-]	> 100 µM (inactive)	> 100 µM (inactive)	> 100 µM (inactive)	> 100 µM (inactive)	> 100 µM (inactive)	> 100 µM (inactive)	> 100 µM (inactive)	> 100 µM (inactive)	> 100 µM (inactive)	> 100 µM (inactive)	> 100 µM (inactive)	> 100 µM (inactive)	> 100 µM (inactive)	> 100 µM (inactive)	> 100 µM (inactive)	> 100 µM (inactive)	> 100 µM (inactive)	> 100 µM (inactive)	> 100 µM (inactive)	> 100 µM (inactive)
OC(c1cc(-c2ccc(Cl)cc2)nc2ccccc12)C1CCCCN1 (stereo not given)	1.82 µM (inactive)	1.84 µM (inactive)	5.09 µM (inactive)	2.14 µM (inactive)	3.37 µM (inactive)	0.982 µM (active)	2.09 µM (inactive)	2.37 µM (inactive)	0.873 µM (active)	2.15 µM (inactive)	1.27 µM (inactive)	2.07 µM (inactive)	2.16 µM (inactive)	1.97 µM (inactive)	0.368 µM (active)	1.87 µM (inactive)	2.16 µM (inactive)	1.88 µM (inactive)	4.32 µM (inactive)	2.66 µM (inactive)
CCCCCCCCC/C=C/C=C/C(=O)NCC(=O)NC1C(O)C(O)C(Nc2ncnc3[nH]cnc23)OC1C(O)CO (stereo not given)	0.00468 µM (active)	0.00397 µM (active)	0.023 µM (active)	0.126 µM (active)	0.00468 µM (active)	0.00234 µM (active)	0.0255 µM (active)	0.158 µM (active)	0.00242 µM (active)	0.00869 µM (active)	0.00532 µM (active)	0.000601 µM (active)	0.00174 µM (active)	0.00023 µM (active)	0.00401 µM (active)	0.0695 µM (active)	0.001 µM (active)	0.00156 µM (active)	0.00208 µM (active)	0.00444 µM (active)
CC(C)Oc1cccc(N2C(NCc3c[nH]c4ccccc34)=Nc3ccncc3S2(=O)=O)c1	28.8 µM (inactive)	20.4 µM (inactive)	34.8 µM (inactive)	23.1 µM (inactive)	15.4 µM (inactive)	26.9 µM (inactive)	32.4 µM (inactive)	16.7 µM (inactive)	20.5 µM (inactive)	22.8 µM (inactive)	17.4 µM (inactive)	12.9 µM (inactive)	47.8 µM (inactive)	16.3 µM (inactive)	40.3 µM (inactive)	45.8 µM (inactive)	33.2 µM (inactive)	33.7 µM (inactive)	25.2 µM (inactive)	31.3 µM (inactive)
CC1C(=O)OC2CC[N+]3([O-])CC=C(COC(=O)C(C)(O)C1(C)O)C23 (stereo not given)	> 100 µM (inactive)	> 100 µM (inactive)	> 100 µM (inactive)	> 100 µM (inactive)	> 100 µM (inactive)	> 100 µM (inactive)	> 100 µM (inactive)	> 100 µM (inactive)	> 100 µM (inactive)	> 100 µM (inactive)	> 100 µM (inactive)	> 100 µM (inactive)	> 100 µM (inactive)	> 100 µM (inactive)	> 100 µM (inactive)	> 100 µM (inactive)	> 100 µM (inactive)	> 100 µM (inactive)	> 100 µM (inactive)	> 100 µM (inactive)
COc1cccc(OC)c1C1ON=C(c2ccccc2)N1C12CC3CC(CC(C3)C1)C2 (stereo not given)	> 100 µM (inactive)	64.3 µM (inactive)	> 100 µM (inactive)	> 100 µM (inactive)	10.9 µM (inactive)	> 100 µM (inactive)	> 100 µM (inactive)	84.5 µM (inactive)	38.6 µM (inactive)	> 100 µM (inactive)	31 µM (inactive)	> 100 µM (inactive)	46.2 µM (inactive)	66.5 µM (inactive)	1.2 µM (inactive)	> 100 µM (inactive)	38.1 µM (inactive)	> 100 µM (inactive)	36.6 µM (inactive)	> 100 µM (inactive)
